Measurements from patent publication US20140303092A1 (CHIMERIX, INC., priority 2011, published 2014).
Where “and” joins values, the source holds several entries; their conditions need not be identical. Identical values can stand only once.

Tested on: CMV
Assay: Study HDP-CDV-201: prevention or control of CMV infection in R+ HSCT recipients (efficacy)
Assay type: in vivo, human (adult allogeneic HSCT recipients)
Details: for Rate of CMV Disease or End of Treatment CMV Infection (≧200 copies/ml): missing=infection; for Rate of CMV DNAemia ≧1000 copies/mL during the treatment period: post hoc; for Developed CMV DNAemia (≧100 copies/mL) during the treatment period: plasma CMV DNA negative at baseline
Procedure: The clinical study of the current invention (HDP-CDV-201) was a 9-11 week randomized, placebo-controlled, double-blind, dose-escalation study (40 mg weekly [QW], 100 mg QW, 200 mg QW, 200 mg twice-weekly [BIW], and 100 mg BIW) of HDP-CDV for the prevention of CMV infection post-HCT. Treatment was initiated at the time of engraftment and continued until Week 13 post-HCT. HDP-CDV, at various doses, was active and well tolerated in the prevention CMV infection or disease.
Clinical Studies of HDP-CDV were performed and described in detail in the following Examples. For example, HDP-CDV-201 is a placebo-controlled, dose-escalating trial in HSCT CMV (R+) recipients, evaluating the ability of HDP-CDV to prevent or control CMV infection was carried out. Five cohorts were established in which participants or subjects received either placebo or the HDP-CDV orally, in doses ranging from 40 mg weekly (QW) to 200 mg twice weekly (BIW). Subjects who were post-HSCT were enrolled at the time of engraftment and randomized to HDP-CDV or placebo (3 to 1 ratio) and received blinded therapy until approximately 100 day post-transplantation. HDP-CDV doses were 40 mg QW, 100 mg QW, 200 mg QW, 200 mg BIW and 100 mg BIW. Escalation to the next dose was decided by the data monitoring committee after review of the safety data from the previous Cohort. Subjects who developed CMV disease or CMV infection requiring pre-emptive therapy with local standard of care were discontinued from blinded therapy and followed for 4 weeks. Subjects who completed treatment with blinded therapy were followed for 8 weeks post-therapy.
The primary endpoint was defined as the incidence of CMV disease at any time during treatment or CMV DNAemia≧200 copies/mL at the end of treatment. All subjects who received at least one dose of drug/placebo and had at least one efficacy evaluation post baseline were included in the primary analysis, regardless of their CMV DNAemia status (negative or positive) at baseline (mITT population). Results for the pooled HDP-CDV Cohorts and for each Cohort separately were analyzed versus that for pooled placebo.
The primary efficacy measure for this study was treatment failure, defined as the occurrence of CMV infection, defined as CMV DNAemia>200 copies/mL at the End of Treatment or diagnosis of CMV disease at any time during the treatment period. For the analysis, the following definitions apply:
For subjects who completed the treatment phase of the study, the End of Treatment was defined as the latest assessment from date of the last dose of study drug and up to 7 days for QW dosing, or the date of the last dose of study drug and up to 4 days for BIW dosing. For subjects who discontinued during the treatment phase of the study, the End of Treatment was defined as the date of the last dose of study drug.
The time to event was defined as the period between FDD and date of first occurrence of the event of interest (inclusive). The events included onset of CMV DNAemia, onset of CMV disease, and discontinuation because of excluded anti-CMV medications. Time to event/onset was derived as (the event/onset date—FDD)+1.
As detailed in the Statistical Analysis Plan, a modified CMV stratum was defined prior to conducting the statistical analysis based upon polymerase chain reaction (PCR) results from the central laboratory. If any positive CMV DNA value in plasma was collected before the first dose of study drug (including Screening, Pre-dose, (combined Screening/Pre-dose), CMV for stratification, and FDD), then the subject was placed into the modified CMV positive (≧100 copies/mL) stratum, otherwise the subject was in the modified CMV negative stratum. […]

[1] = 100 mg BIW, modified CMV negative stratum
[2] = 100 mg BIW, whole study period, CMV DNA negative at baseline
[3] = 100 mg QW, CMV modified strata: negative
[4] = 100 mg QW, CMV modified strata: positive
[5] = 100 mg QW, active treatment period
[6] = 100 mg QW, modified CMV negative stratum

CCCCCCCCCCCCCCCCOCCCOP(=O)(O)COC(CO)Cn1ccc(N)nc1=O (stereo not drawn) [HDP-CDV]
Incidence of CMV disease or initiation of anti-CMV preemptive therapy (100 mg BIW, mITT): 14% | Subjects Receiving Antiviral Therapy and/or had CMV disease (100 mg BIW, mITT): 7 (14.0%) subjects (%) | Subjects without a CMV event (100 mg BIW, mITT): 43 (86.0%) subjects (%) | Time to Antiviral Therapy, Median (100 mg BIW, mITT): 23.0 days | Rate of CMV Disease or End of Treatment CMV Infection (≧200 copies/ml) (100 mg BIW, mITT): 10% | Rate of CMV DNAemia ≧1000 copies/mL during the treatment period (100 mg BIW, mITT): 8% | Time to Antiviral Therapy, Mean (100 mg BIW, mITT, censored values not included): 23.1 days | % CMV Event Rate: Incidence of CMV DNAemia >100 copies/mL During Treatment (Fisher analysis, ref 14.3.3.2.1) [1]: 9 (22.5%) subjects (%) | % CMV Event Rate: Incidence of CMV DNAemia ≧1,000 copies/mL at any time during treatment [1]: 0 subjects (%) | % CMV Event Rate: onset of CMV DNAemia During Whole Study [1]: 14 (33.3%) subjects (%) | Combined CMV event rate (CMV disease, viremia requiring treatment, viremia ≧1000 copies/mL) [1]: 12.2% | Subjects Who Had CMV-related Event (CMV disease, CMV DNAemia ≧1,000 c/mL or initiation of anti-CMV treatment) [1]: 5 (12.2%) subjects (%) | Subjects without a CMV-related event [1]: 36 (87.8%) subjects (%) | Developed CMV DNAemia (≧100 copies/mL) during the treatment period (100 mg BIW, mITT): 10 (23.8.%) N(%) and 10 (23.8%) N(%) | Time to CMV DNAemia (≧100 copies/mL), Median (100 mg BIW, treatment period, CMV DNA negative at baseline): 20.0 days | Time to CMV DNAemia (≧100 copies/mL), Mean (100 mg BIW, treatment period, CMV DNA negative at baseline, censored values not included): 28.8 days | Number of Subjects who had CMV DNAemia (≧100 copies/mL) by the end of study [2]: 14 | Time to CMV DNAemia (≧100 copies/mL), Mean [2]: 42.8 days | Time to CMV DNAemia (≧100 copies/mL), Median [2]: 32.5 days | Incidence of composite endpoint (initiation of anti-CMV therapy or CMV disease or CMV DNAemia >1,000 copies/mL) (100 mg QW): 21.7% | Difference (HDP-CDV minus placebo) in infection rate [3]: −16.7% | Difference (HDP-CDV minus placebo) in rate of CMV DNAemia ≧1,000 copies/ml [3]: −23.2% | Rate of CMV DNAemia ≧1,000 copies/ml during the treatment period [3]: 8.7% | Rate of CMV Disease or End of Treatment CMV Infection [3]: 13.0% | Difference (HDP-CDV minus placebo) in rate of CMV DNAemia ≧1,000 copies/mL [4]: 16.7% | Rate of CMV DNAemia ≧1,000 copies/mL during the treatment period [4]: 100.0% | Rate of CMV Disease or End of Treatment CMV Infection (100 mg QW, aGVHD randomization strata: negative): 24.0% | Difference (HDP-CDV minus placebo) in infection rate (100 mg QW, aGVHD strata: negative): −8.1% | Discontinuation: Emergence of CMV disease [5]: 3 Subject n (%) and 3 (11.1%) Subject n (%) | Discontinuation: Initiation of alternate CMV therapy [5]: 4 (14.8%) Subject n (%) | Difference (HDP-CDV minus placebo) in rate of CMV DNAemia ≧1000 copies/mL (100 mg QW, mITT): −20.2% | Difference (HDP-CDV minus placebo) in rate of CMV disease or end of treatment CMV infection (100 mg QW, mITT): −15.1% | Subjects Receiving Antiviral Therapy and/or had CMV disease (100 mg QW, mITT): 7 (25.9%) subjects (%) | Subjects without a CMV event (100 mg QW, mITT): 20 (74.1%) subjects (%) | Time to Antiviral Therapy, Median (100 mg QW, mITT): 41.0 days | Rate of CMV Disease or End of Treatment CMV Infection (≧200 copies/ml) (100 mg QW, mITT): 22% and 22.2% | Rate of CMV DNAemia ≧1000 copies/mL during the treatment period (100 mg QW, mITT): 22.2% | Time to Antiviral Therapy, Mean (100 mg QW, mITT, censored values not included): 41.9 days | % CMV Event Rate: Incidence of CMV DNAemia >100 copies/mL During Treatment (Fisher analysis, ref 14.3.3.2.1) [6]: 5 (21.7%) subjects (%) | % CMV Event Rate: Incidence of CMV DNAemia ≧1,000 copies/mL at any time during treatment [6]: 2 (8.7%) subjects (%) | % CMV Event Rate: onset of CMV DNAemia During Whole Study [6]: 8 (34.8%) subjects (%) | Subjects Who Had CMV-related Event (CMV disease, CMV DNAemia ≧1,000 c/mL or initiation of anti-CMV treatment) [6]: 5 (21.7%) subjects (%) | Subjects without a CMV-related event [6]: 18 (78.3%) subjects (%) | Developed CMV DNAemia (≧100 copies/mL) during the treatment period (100 mg QW, mITT): 5 (21.7%) N(%) | Time to CMV DNAemia (≧100 copies/mL), Median (100 mg QW, treatment period, CMV DNA negative at baseline): 30.0 days
